Laboratory results taken from patent publication US20110009351A1, “SCREENING ASSAY TO IDENTIFY CORRECTORS OF PROTEIN TRAFFICKING DEFECTS” (Traffick Therepeutics Inc., priority 2007, published 2011).
Where a name gives a salt, the structure may show the parent alone.

Legend:
ΔF508-CFTR [1] = biological target: T1, ΔF508-CFTR (Homo sapiens, UniProt P13569, DEL508-508); assay: short-circuit current (Isc) across CFBE41o− monolayers in Ussing chambers; assay type: cell-based; design: expressed in transfected cells; host or cells: CFBE41o- (ΔF508/ΔF508) transduced with ΔF508-CFTR, TranzVector lentivirus, provided by J. P. Clancy; settings: 10 μM, 24 h
T1 sequence (P13569 with tags, fused parts or gaps DEL508-508): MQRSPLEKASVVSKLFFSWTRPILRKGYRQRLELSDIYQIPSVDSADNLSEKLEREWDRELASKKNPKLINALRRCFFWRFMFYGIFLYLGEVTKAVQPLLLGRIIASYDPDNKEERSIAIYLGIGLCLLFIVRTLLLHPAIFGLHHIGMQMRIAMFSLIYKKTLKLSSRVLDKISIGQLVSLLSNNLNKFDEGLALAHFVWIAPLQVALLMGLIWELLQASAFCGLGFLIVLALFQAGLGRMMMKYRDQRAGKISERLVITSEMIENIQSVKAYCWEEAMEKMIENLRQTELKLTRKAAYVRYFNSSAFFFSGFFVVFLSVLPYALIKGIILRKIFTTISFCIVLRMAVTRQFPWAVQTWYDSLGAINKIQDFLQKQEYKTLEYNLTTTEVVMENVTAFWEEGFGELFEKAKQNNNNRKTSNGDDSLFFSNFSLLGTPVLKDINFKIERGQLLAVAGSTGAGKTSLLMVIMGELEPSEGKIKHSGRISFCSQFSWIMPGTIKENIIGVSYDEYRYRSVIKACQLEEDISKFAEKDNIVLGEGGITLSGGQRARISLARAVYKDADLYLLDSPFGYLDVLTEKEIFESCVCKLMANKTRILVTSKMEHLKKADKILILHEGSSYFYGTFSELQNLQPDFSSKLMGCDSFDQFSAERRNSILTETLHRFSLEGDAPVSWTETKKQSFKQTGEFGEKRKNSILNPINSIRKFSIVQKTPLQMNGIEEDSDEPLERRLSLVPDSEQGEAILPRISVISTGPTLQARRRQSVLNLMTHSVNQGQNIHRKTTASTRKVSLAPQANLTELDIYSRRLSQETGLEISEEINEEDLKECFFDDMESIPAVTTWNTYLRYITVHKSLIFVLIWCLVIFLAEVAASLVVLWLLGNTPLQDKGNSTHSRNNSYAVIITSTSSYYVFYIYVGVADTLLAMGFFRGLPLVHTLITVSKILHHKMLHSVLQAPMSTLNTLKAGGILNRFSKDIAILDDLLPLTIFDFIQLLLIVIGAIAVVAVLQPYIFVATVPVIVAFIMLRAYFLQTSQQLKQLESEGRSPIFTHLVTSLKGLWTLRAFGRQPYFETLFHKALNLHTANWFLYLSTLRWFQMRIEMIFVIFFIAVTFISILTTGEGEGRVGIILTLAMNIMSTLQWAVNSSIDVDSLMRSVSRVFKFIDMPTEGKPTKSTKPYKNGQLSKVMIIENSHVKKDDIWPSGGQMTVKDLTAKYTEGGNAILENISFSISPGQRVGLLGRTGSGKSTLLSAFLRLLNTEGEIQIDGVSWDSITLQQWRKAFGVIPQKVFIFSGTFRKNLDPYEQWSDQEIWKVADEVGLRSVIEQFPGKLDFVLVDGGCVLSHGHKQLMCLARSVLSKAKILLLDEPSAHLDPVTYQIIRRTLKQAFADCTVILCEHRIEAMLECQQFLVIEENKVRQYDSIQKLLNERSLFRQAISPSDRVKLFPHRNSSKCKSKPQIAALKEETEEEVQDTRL
Method: Short-circuit current (Isc) was measured across monolayers in modified Ussing chambers. 1×10^6 CFBE41o^− cells were seeded onto 12-mm fibronectin-coated Snapwell inserts (Corning Incorporated, Life Sciences, New-York, N.Y.) and the apical medium was removed after 24 h. Transepithelial resistance was monitored using an EVOM epithelial voltohmmeter (World Precision Instruments, Sarasota, Fla.) and cells were used when the transepithelial resistance was 300-400 ohms·cm^2. In some experiments, F508del-CFBE41o^− monolayers were incubated at 29° C. or treated with glafenine at 37° C. for 24 h before being mounted in EasyMount chambers and voltage clamped using a VCCMC6 multichannel current-voltage clamp (Physiologic Instruments, San Diego, Calif.). The apical membrane conductance was functionally isolated by permeabilizing the basolateral membrane with 200 μg/ml nystatin and imposing an apical-to-basolateral Cl^− gradient. For these experiments the basolateral bathing solution contained (in mM) 1.2 NaCl, 115 Na-gluconate, 25 NaHCO3, 1.2 MgCl2, 4 CaCl2, 2.4, KH2PO4, 1.24 K2HPO4, 10 glucose (pH 7.4 with NaOH). The CaCl2 concentration was increased to 4 mM to compensate for the chelation of calcium by gluconate. The apical bathing solution contained (in mM) 115 NaCl, 25 NaHCO3, 1.2 MgCl2, 1.2 CaCl2, 2.4 KH2PO4, 1.24 K2HPO4, 10 mannitol (pH 7.4 with NaOH). […]

ΔF508-CFTR [2] = biological target: T1, ΔF508-CFTR; assay: iodide efflux assay in BHK cells expressing ΔF508-CFTR; assay type: cell-based; design: which was then ligated into full length pNUT-CFTR linearized using Hpa1 and Pml1; expressed in transfected cells; settings: 24 h
Method: Experiments were performed by hand or with a robotic liquid handling system (BioRobot 8000, Qiagen, USA) using Qiagen 4.1 software. Cells were cultured in 24-well plates until they reached confluence in order to perform parallel experiments and comparison analysis. After treatment (or not) with a test compound, medium in each well was replaced with 1 ml of iodide loading buffer (in mM: 136 NaI, 3 KNO3, 2 Ca(NO3)2, 11 glucose and 20 Hepes pH 7.4) for 1 hour at 37° C. to permit the I′ to reach equilibrium. At the beginning of each experiment, the loading buffer was removed by aspiration and cells were washed eight times with efflux buffer (same as loading buffer except that NaI was replaced with 136 mM NaNO3) to remove extracellular I^− in each well. The loss of intracellular I^− was determined by removing the medium and replacing it with fresh efflux buffer every 1 min for up to 11 min. The first four aliquots were recovered at 1-minute intervals in an empty 24-well plate and used to establish a stable baseline in efflux buffer alone. A stimulation buffer (efflux buffer containing 50 μM genistein+10 μM forskolin) was then added and sampling continued with replacement by stimulation buffer. The iodide concentration of each aliquot was determined using an iodide-sensitive electrode (Orion Research Inc., Boston, Mass., USA or Ecomet) and converted to iodide content (i.e. the amount of iodide released during the 1 min interval). Curves were constructed by plotting concentration versus time. Data are presented as means±SEM.
Iodide effluxes were performed using a robotic liquid handling system (BioRobot 8000, Qiagen, Valencia, Calif.) and Qiagen 4.1 software. Cells were cultured to confluence in 24-well plates. After treatment (or not) with a test compound, the medium in each well was replaced with 1 ml of iodide loading buffer: 136 mM NaI, 3 mM KNO3, 2 mM Ca(NO3)2, 11 mM glucose, 20 mM Hepes, pH 7.4 with NaOH) and incubated for 1 h at 37° C. At the beginning of each experiment, the loading buffer was removed by aspiration and cells were washed eight times with 300 μl efflux buffer (same as loading buffer except that NaI was replaced with 136 mM NaNO3) to remove extracellular I^−. Efflux was measured by replacing the medium with 300 μl fresh efflux buffer at 1 min intervals for up to 11 min. The first four aliquots were used to establish a stable baseline, then buffer containing 10 μM forskolin+50 μM genistein was used to stimulate CFTR activity. Iodide concentration was measured in each aliquot (300 μl) using an iodide-sensitive electrode (Orion Research Inc., Boston, Mass.). Relative iodide efflux rate was calculated using the difference between maximum (peak) iodide concentration during stimulation and minimum iodide concentration before stimulation (in μM/min). […]

## O=C(OCC(O)CO)c1ccccc1Nc1ccnc2cc(Cl)ccc12 (stereo not drawn) [Glafenine hydrochloride, 2-[(7-chloro-4-quinolinyl)amino]benzoic acid 2,3-dihydroxypropyl ester]
ΔF508-CFTR [1]
  increase of forskolin+genistein-stimulated Isc compared with DMSO controls: about 2.5 fold
ΔF508-CFTR [2]; 10 μM, 10 μM forskolin+50 μM genistein, versus vehicle
  increase of cAMP-stimulated iodide efflux response: 3.3 fold
ΔF508-CFTR [2]; iodide efflux, BHK
  concentration required for significant restoration of ΔF508-CFTR function: 1 to 10 µM
